Results on 16 compounds are retold here after patent publication US8541449B2, “Substituted isoquinolines and isoquinolinones as Rho kinase inhibitors” (Sanofi, priority 2008, dated 2013).

Structures are written as SMILES. Bounds are passed on as bounds.

What is called IC50 is the concentration that inhibits the measured activity by half.

What all share (type): biochemical
Experiment [1] concerns the target T1, human recombinant ROCK II (Homo sapiens, UniProt O75116).
T1 construct: N-terminal His6-tagged recombinant human ROCK-II residues 11-552; His6 (N); purchased Millipore GmbH, Schwalbach, Germany
The experiment is described as follows: Determination of Rho kinase inhibition (Caliper peptide phosphorylation assay). The conditions noted are these: 60 min at 32° C., negative decadal logarithm of the IC50. On the procedure: Determination of Rho Kinase Inhibition
To measure Rho-kinase inhibition, IC50 values were determined according to the following protocol:
Active human recombinant ROCK II (N-terminal His6-tagged recombinant human ROCK-II residues 11-552) was purchased from Millipore GmbH, Schwalbach, Germany. The peptide substrate, Fluorescein-[…]-COOH, was obtained from JPT Peptide Technologies, Berlin, Germany. Adenosine-5′-triphosphate (ATP), bovine serum albumine (BSA), dimethylsulphoxide (DMSO), 4-(2-Hydroxyethyl)piperazine-1-ethanesulfonic acid (Hepes), Brij-35, dithiothreitol (DTT) and Pluronic F-68 were purchased from Sigma-Aldrich, Munich, Germany. Tris(hydroxymethyl)-aminomethane (Tris), magnesium chloride, NaOH, 1M HCl and EDTA were obtained from Merck Biosciences, Darmstadt, Germany. “Complete” protease inhibitor was from Roche Diagnostics, Mannheim, Germany.
(§1) Test compounds were diluted to the appropriate concentrations in buffer 1 (25 mM Tris-HCl, pH 7.4, 5 mM MgCl2, 2 mM DTT, 0.02% (w/v) BSA, 0.01% Pluronic F-68 and 3% DMSO). The ROCK II enzyme was diluted to a concentration of 100 ng/mL in buffer 2 (25 mM Tris-HCl, pH 7.4, 5 mM MgCl2, 2 mM DTT and 0.02% (w/v) BSA). The peptide substrate and ATP were diluted to concentrations of 3 μM and 120 μM, respectively, in the buffer 2. Two μl of the compound solution were mixed with 2 μl of the diluted enzyme in a 384-well small volume microtiter plate (Greiner, Bio-One, Frickenhausen, Germany), and the kinase reaction was initiated by addition of 2 μl of the solution containing peptide substrate and ATP. After 60 min incubation at 32° C., the reaction was stopped by addition of 20 μl of a solution containing 100 mM Hepes-NaOH, pH 7.4, 0.015% (v/v) Brij-35, 45 mM EDTA and 0.227% chip coating reagent 1 (Caliper Lifescience Inc, Hopkinton, Mass.). Phosphorylation of the substrate peptide was then detected on a Caliper 3000 instrument essentially as described by Pommereau et al (J. Biomol. Screening 9(5), 409-416, 2004). Separation conditions were as follows: Pressure −1.3 psi, upstream voltage −1562 V, downstream voltage −500 V, sample sip time 200 ms. Positive controls (buffer 1 instead of compound) and negative controls (buffer 1 instead of compound and buffer 2 instead of ROCK II) were run in parallel on each plate.
The following products/compounds were tested in said assay by using the respective form (salt or free base) obtained as in the examples described above and the following activities were measured

The target in experiment [2] is T2, recombinant human PKA (Homo sapiens, UniProt P17612).
T2 construct: Active recombinant human PKA (residues 1-351, N-terminal His-tag); His-tag (N); purchased Invitrogen, Karlsruhe, Germany
The experiment is described as follows: Determination of Protein Kinase A inhibition (Caliper peptide phosphorylation assay). The note with it: recombinant human PKA versus ROCK II. On the procedure: (§2) Determination of Protein Kinase A and Protein Kinase G Inhibition
(§3) To measure PKA and PKG1-beta inhibition, IC50 values were determined according to the following protocol:
(§4) Active recombinant human PKG1-beta (full-length, with N-terminal His-tag) was purchased from Millipore GmbH, Schwalbach, Germany. Active recombinant human PKA (residues 1-351, N-terminal His-tag) was obtained from Invitrogen, Karlsruhe, Germany. The peptide substrate, Fluorescein-[…]-COOH, was obtained from JPT Peptide Technologies, Berlin, Germany. Adenosine-5′-triphosphate (ATP), bovine serum albumine (BSA), dimethylsulphoxide (DMSO), 4-(2-Hydroxyethyl)piperazine-1-ethanesulfonic acid (Hepes), Brij-35, dithiothreitol (DTT) and Pluronic F-68 were purchased from Sigma-Aldrich, Munich, Germany. Tris(hydroxymethyl)-aminomethane (Tris), magnesium chloride, NaOH, 1M HCl and EDTA were obtained from Merck Biosciences, Darmstadt, Germany. “Complete” protease inhibitor was from Roche Diagnostics, Mannheim, Germany.
as §1, with “PKG1-beta and PKA were” for “The ROCK II enzyme was”, “concentrations” for “a concentration”, “150 ng/ml and 30 ng/ml, respectively,” for “100 ng/mL”, “2.” for “2 (25 mM Tris-HCl, pH 7.4, 5 mM MgCl2, 2 mM DTT and 0.02% (w/v) BSA).”, “kinase solution)” for “ROCK II)”, “plate. The following products/compounds were tested in said assay by using the respective form (salt or free base) obtained as in the examples described above and the following activities were measured.” for “plate.”

In experiment [3] the target is T3, recombinant human PKG1-beta (Homo sapiens, UniProt Q13976).
T3 construct: Active recombinant human PKG1-beta (full-length, with N-terminal His-tag); His-tag (N); purchased Millipore GmbH, Schwalbach, Germany
T3 sequence (Q13976 1-686 isoform Q13976-2): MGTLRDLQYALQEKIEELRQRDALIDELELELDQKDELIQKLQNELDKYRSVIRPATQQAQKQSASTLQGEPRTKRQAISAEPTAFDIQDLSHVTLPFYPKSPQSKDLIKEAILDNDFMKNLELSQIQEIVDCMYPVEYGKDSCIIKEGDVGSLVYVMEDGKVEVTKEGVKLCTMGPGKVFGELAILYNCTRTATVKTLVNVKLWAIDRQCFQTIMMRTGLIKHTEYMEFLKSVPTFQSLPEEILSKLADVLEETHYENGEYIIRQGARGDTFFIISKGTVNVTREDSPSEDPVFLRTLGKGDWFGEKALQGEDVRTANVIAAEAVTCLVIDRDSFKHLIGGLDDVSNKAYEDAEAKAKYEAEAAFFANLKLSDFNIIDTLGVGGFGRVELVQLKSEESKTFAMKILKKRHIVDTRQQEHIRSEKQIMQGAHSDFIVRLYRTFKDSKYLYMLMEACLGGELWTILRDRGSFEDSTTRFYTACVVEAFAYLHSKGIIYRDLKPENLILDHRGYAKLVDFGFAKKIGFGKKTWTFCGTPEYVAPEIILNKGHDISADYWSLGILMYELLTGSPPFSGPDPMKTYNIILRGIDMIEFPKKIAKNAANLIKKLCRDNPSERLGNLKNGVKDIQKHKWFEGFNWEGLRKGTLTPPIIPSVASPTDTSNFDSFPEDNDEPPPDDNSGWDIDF
Kind of experiment: Determination of Protein Kinase G inhibition (Caliper peptide phosphorylation assay). The conditions noted are these: recombinant human PKG1-beta versus ROCK II. On the procedure: as §2, §3, §4
as §1, with “PKG1-beta and PKA were” for “The ROCK II enzyme was”, “concentrations” for “a concentration”, “150 ng/ml and 30 ng/ml, respectively,” for “100 ng/mL”, “2.” for “2 (25 mM Tris-HCl, pH 7.4, 5 mM MgCl2, 2 mM DTT and 0.02% (w/v) BSA).”, “kinase solution)” for “ROCK II)”, “plate. The following products/compounds were tested in said assay by using the respective form (salt or free base) obtained as in the examples described above and the following activities were measured.” for “plate.”

T1 sequence (O75116 11-552): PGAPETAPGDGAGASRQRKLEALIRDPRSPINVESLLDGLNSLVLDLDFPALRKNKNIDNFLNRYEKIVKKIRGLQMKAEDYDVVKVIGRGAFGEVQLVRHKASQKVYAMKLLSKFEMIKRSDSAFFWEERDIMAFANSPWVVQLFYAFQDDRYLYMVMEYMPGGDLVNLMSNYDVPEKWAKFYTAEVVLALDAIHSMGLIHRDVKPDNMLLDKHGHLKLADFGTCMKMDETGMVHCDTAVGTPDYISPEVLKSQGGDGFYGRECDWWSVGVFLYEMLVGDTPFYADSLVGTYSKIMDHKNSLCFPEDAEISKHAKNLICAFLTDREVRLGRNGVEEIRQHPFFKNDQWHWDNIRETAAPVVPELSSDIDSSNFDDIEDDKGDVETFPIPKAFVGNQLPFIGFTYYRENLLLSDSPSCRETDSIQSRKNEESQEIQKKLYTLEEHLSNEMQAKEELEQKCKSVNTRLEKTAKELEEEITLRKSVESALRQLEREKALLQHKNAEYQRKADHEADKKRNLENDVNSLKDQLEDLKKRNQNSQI

For the compound `NC(c1ccccc1)C1CCC(Oc2cc3cc[nH]c(=O)c3cc2Cl)CC1` (single isomer, unassigned) [Example 40, 6-[4-(Amino-phenyl-methyl)-cyclohexyloxy]-7-chloro-2H-isoquinolin-1-one], the IC50 in experiment [1] is 100 to 1000 nM.
On the same count and under the same terms, as for `CC(N)(C1CCCC1)C1CCC(Oc2cc3cc[nH]c(=O)c3cc2Cl)CC1` (single isomer, unassigned) [Example 118, 6-{4-[1-Amino-1-cyclopentyl-ethyl]-cyclohexyl-oxy}-7-chloro-2H-isoquinolin-1-one], the figure is 100 to 1000 nM; as for `CCC(N)(CC)C1CCC(Oc2cc3cc[nH]c(=O)c3cc2Cl)CC1` (single isomer, unassigned) [Example 119, 6-{4-[1-Amino-1-ethyl-propyl]-cyclohexyloxy}-7-chloro-2H-isoquinolin-1-one], 100 to 1000 nM.
For the compound `CCCC(C)(N)C1CCC(Oc2cc3cc[nH]c(=O)c3cc2Cl)CC1` (single isomer, unassigned) [Example 124, 6-{4-[1-Amino-1-methyl-n-butyl]-cyclohexyloxy}-7-chloro-2H-isoquinolin-1-one], in experiment [2], the “Selectivity against PKA” value is on record as more than 100. In addition, the “Selectivity against PKG” value in experiment [3] was more than 10.
Take `NC(C1CCC(Oc2cc3cc[nH]c(=O)c3cc2Cl)CC1)C1CC1` (single isomer, unassigned) [Example 132, 6-[4-(Amino-cyclopropyl-methyl)-cyclohexyloxy]-7-chloro-2H-isoquinolin-1-one]: the “Selectivity against PKA” value in experiment [2] is recorded as more than 100. Further, the “Selectivity against PKG” value in experiment [3] is more than 10.
For `CC(N)(c1ccccc1)C1CCC(Oc2cc3cc[nH]c(=O)c3cc2Cl)CC1` (centres unmarked) [Example 34, 6-[4-(1-Amino-1-phenyl-ethyl)-cyclohexyloxy]-7-chloro-2H-isoquinolin-1-one], the “Selectivity against PKA” value in experiment [2] is on record as more than 300. The “Selectivity against PKG” value in experiment [3] was more than 10.
For `CCC(N)[C@]1(c2ccc(C)c(OC)c2)CC[C@H](Oc2cc3cc[nH]c(=O)c3cc2Cl)CC1` (stereo partly drawn) [Example 64, cis-6-[4-(1-Amino-propyl)-4-(3-methoxy-4-methyl-phenyl)-cyclohexyloxy]-7-chloro-2H-isoquinolin-1-one], the “Selectivity against PKA” value in experiment [2] is reported as more than 1000. Besides, the “Selectivity against PKG” value in experiment [3] is more than 100.
Turning to `CCC(N)[C@]1(c2ccc(F)c(F)c2)CC[C@H](Oc2cc3cc[nH]c(=O)c3cc2C)CC1` (stereo partly drawn) [Example 65, cis-6-[4-(1-Amino-propyl)-4-(3,4-difluoro-phenyl)-cyclohexyloxy]-7-methyl-2H-isoquinolin-1-one], the pIC50 result in experiment [1] is “+++++ (6.0≦pIC50<7.0)”.
Still for that read-out and setting: the result for `CCC(N)[C@]1(c2ccc(F)c(F)c2)CC[C@H](Oc2c(F)cc3c(=O)[nH]ccc3c2C)CC1` (stereo partly drawn) [Example 67, cis-6-[4-(1-Amino-propyl)-4-(3,4-difluoro-phenyl)-cyclohexyloxy]-7-fluoro-5-methyl-2H-isoquinolin-1-one] reads “+++++ (6.0≦pIC50<7.0)”; that for `CCC(N)[C@]1(c2ccccc2)CC[C@H](Oc2cc3ccncc3cc2Cl)CC1` (stereo partly drawn) [Example 89, cis-1-[4-(7-Chloro-iso-quinolin-6-yloxy)-1-phenyl-cyclohexyl]-propylamine], “+++++ (6.0≦pIC50<7.0)”.
In the case of `CCC(N)[C@]1(c2ccccc2)CC[C@H](Oc2c(C)cc3cnccc3c2C)CC1` (stereo partly drawn) [Example 90, cis-1-[4-(5,7-Dimethyl-isoquinolin-6-yloxy)-1-phenyl-cyclohexyl]-propylamine], in experiment [1], the pIC50 result is on record as “+++++ (6.0≦pIC50<7.0)”.
Same read-out and setting: as for `CCC(N)[C@]1(c2ccccc2)CC[C@H](Oc2ccc3cnccc3c2Cl)CC1` (stereo partly drawn) [Example 92, cis-1-[4-(5-Chloro-isoquinolin-6-yloxy)-1-phenyl-cyclohexyl]-propylamine], the entry is “+++++ (6.0≦pIC50<7.0)”.
With `CCC(N)[C@]1(c2ccccc2)CC[C@H](Oc2cc3ccncc3cc2Br)CC1` (stereo partly drawn) [Example 94, cis-1-[4-(7-Bromo-isoquinolin-6-yloxy)-1-phenyl-cyclohexyl]-propylamine], the pIC50 entry in experiment [1] is given as “+++++ (6.0≦pIC50<7.0)”.
In the case of `CCC(N)[C@]1(c2ccccc2)C[C@H]2C[C@@H]1CC2Oc1cc2cc[nH]c(=O)c2cc1Cl` (stereo partly drawn) [Example 101, 6-[(1R,4R,5R)-5-(1-Amino-propyl)-5-phenyl-bicyclo[2.2.1]hept-2-yloxy]-7-chloro-2H-isoquinolin-1-one], the pIC50 result in experiment [1] is “+++++ (6.0≦pIC50<7.0)”.
For the compound `CCC(N)[C@]1(c2ccccc2)CC[C@H](Oc2cc3ccnc(N)c3cc2Cl)CC1` (stereo partly drawn) [Example 111, cis-6-[4-(1-Amino-propyl)-4-phenyl-cyclohexyloxy]-7-chloro-isoquinolin-1-ylamine], the pIC50 result in experiment [1] is on record as “++++++ (7.0≦pIC50<8.0)”.
Turning to `COCCC(N)[C@]1(c2ccc(F)cc2)CC[C@H](Oc2cc3cc[nH]c(=O)c3cc2Cl)CC1` (stereo partly drawn) [Example 115, cis-6-[4-(1-Amino-3-methoxy-propyl)-4-(4-fluoro-phenyl)-cyclohexyloxy]-7-chloro-2H-isoquinolin-1-one], the pIC50 entry in experiment [1] is “+++++ (6.0≦pIC50<7.0)”.
